Source: US7816400B2 (The University of Hong Kong, priority 2007, dated 2010)
“Also recorded” adds a separate entry of the source.

How the values were obtained:
[1] = molecular target: T1, IKur (Homo sapiens, UniProt P22460); test: IKur in human atrial myocytes, whole-cell patch clamp; type: cell-based; details: for inhibition of voltage-dependent IKur (tail and step currents), in words: 3, 10 and 30 μM
T1 construct: endogenous in cells; host or cells: human right atrial myocytes, freshly isolated
Description: (§4) Atrial cells were isolated from specimens of human right atrial appendage obtained from patients (56.1±4.7 years old) undergoing coronary artery bypass grafting. […] After excision, the samples were quickly immersed in oxygenated, normally Ca^2+-free cardioplegic solution for transport to the laboratory. […] Briefly, the atrial tissue was minced, and gently agitated by continuous bubbling with 100% O2 in a Ca^2+-free Tyrode solution for 15 min (5 min at a time in fresh solutions), and then incubated for 50 min in a similar solution containing 150-200 U/ml collagenase (CLS II, Worthington Biochemical, Freehold, N.J., USA), 0.2 mg/ml protease (type XXIV, Sigma-Aldrich Chemical, St Louis, Mo., USA.) and 1 mg/ml bovine serum albumin (Sigma-Aldrich). After then, the chunks were re-incubated in a fresh enzyme solution of the same composition but no protease. The quantity and quality of isolated cells were monitored under a microscope. When the cell yield appeared optimal, the chunks were suspended in a high K medium containing (mM) 10 KCl, 120 K-glutamate, 10 KH2PO4, 1.8 MgSO4, 10 taurine, 10 HEPES, 0.5 EGTA, 20 glucose, 10 mannitol, pH was adjusted to 7.3 with KOH and gently blown with a pipette. The isolated myocytes were kept at room temperature in the medium at least 1 h before use.
(§5) The Ca^2+-free cardioplegic solution for specimen transport contained (in mM) 50 KH2PO4, 8 MgSO4, 5 adenosine, 10 HEPES, 140 glucose, 100 mannitol, 10 taurine, pH was adjusted to 7.3 with KOH. Tyrode solution contained (in mM) 140 NaCl, 5.4 KCl, 1 MgCl2, 1 CaCl2, 0.33 NaH2PO4, 10 HEPES, 10 glucose, pH was adjusted to 7.4 with NaOH. The pipette solution contained (in mM) 20 KCl, 110 K-aspartate, 1 MgCl2, 10 HEPES, 5 EGTA, 0.1 GTP, 5 Na2-phosphocreatine, and 5 Mg2-ATP, pH was adjusted to 7.2 with KOH. For Ito and IKur recording, BaCl2 (200 μM) and CdCl2 (200 μM) were added to the superfusion to block IK1 and ICa.L. Atropine (1.0 μM) was used to minimize possible IK.ACh contamination during the current recording. For ICa.L recording, K^+ in pipette and Tyrode solution was replaced by CsCl. INa was recorded under conditions of K^+-free and a symmetrical Na^+ (5 mM) in pipette and superfusion solutions as described previously (Li at al., 2002a).
A small aliquot of the solution containing the isolated cells was placed in an open perfusion chamber (1-ml) mounted on the stage of an inverted microscope. […]
The whole-cell patch-clamp technique was used for electrophysiological recording. […] Membrane currents were recorded in voltage-clamp mode using an EPC-9 amplifier and Pulse software (HEKA, Lambrecht, Germany). […] The cell membrane capacitance (pF) was directly measured using the lock-in module of the Pulse software, and used for normalizing the current in individual cells.

[2] = molecular target: T2, Ito (Homo sapiens, UniProt Q9UK17); test: Ito in human atrial myocytes, whole-cell patch clamp; type: cell-based; details: for voltage-dependence of steady-state inactivation and activation of Ito, in words: 10 μM
T2 sequence (Q9UK17 1-655): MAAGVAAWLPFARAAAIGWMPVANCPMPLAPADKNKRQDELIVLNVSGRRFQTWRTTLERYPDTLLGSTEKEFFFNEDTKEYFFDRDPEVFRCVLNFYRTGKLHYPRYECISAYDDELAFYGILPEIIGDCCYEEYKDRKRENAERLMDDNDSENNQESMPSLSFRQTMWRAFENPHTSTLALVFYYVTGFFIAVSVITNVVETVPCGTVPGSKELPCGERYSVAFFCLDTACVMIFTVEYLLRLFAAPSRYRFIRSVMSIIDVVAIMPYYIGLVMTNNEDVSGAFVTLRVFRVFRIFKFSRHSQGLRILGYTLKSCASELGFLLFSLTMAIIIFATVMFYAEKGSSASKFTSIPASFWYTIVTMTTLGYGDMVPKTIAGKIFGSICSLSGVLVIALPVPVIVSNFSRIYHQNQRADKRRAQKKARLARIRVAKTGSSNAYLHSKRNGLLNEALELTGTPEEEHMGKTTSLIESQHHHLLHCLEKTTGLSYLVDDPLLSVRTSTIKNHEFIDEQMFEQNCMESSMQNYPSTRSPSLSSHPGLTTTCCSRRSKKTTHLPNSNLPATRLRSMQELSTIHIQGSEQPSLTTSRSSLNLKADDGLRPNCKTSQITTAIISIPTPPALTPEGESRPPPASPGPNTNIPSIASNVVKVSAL
T2 sequence (Q9NS61 1-270 partner): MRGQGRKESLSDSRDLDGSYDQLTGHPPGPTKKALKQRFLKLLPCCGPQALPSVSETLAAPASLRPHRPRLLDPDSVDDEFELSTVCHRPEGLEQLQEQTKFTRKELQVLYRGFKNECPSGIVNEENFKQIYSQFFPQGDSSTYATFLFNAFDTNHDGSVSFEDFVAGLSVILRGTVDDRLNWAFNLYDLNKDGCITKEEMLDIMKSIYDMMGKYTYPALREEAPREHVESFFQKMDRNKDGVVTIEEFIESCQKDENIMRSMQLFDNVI
Description: as §4, §5
A small aliquot of the solution containing the isolated cells was placed in an open perfusion chamber (1-ml) mounted on the stage of an inverted microscope. Myocytes were allowed to adhere to the bottom of the chamber for 5-10 min and were the superfused at 2-3 ml/min with Tyrode solution. Only quiescent rod-shaped cells with clear cross-striations were used. The studies were conducted at room temperature (21-22° C.) for current recording or 36° C. for action potential recording.

[3] = test system: IK.ACh; test: Carbachol-evoked IK.ACh in guinea pig atrial myocytes; type: cell-based; details: for IK.ACh at +50 mV / IK.ACh at −100 mV: carbachol 5 μM; for IK.ACh at +50 mV: control 147.2; for IK.ACh at −100 mV: control −338.3±61.5; for block of carbachol-evoked IK.ACh, in words: 3 and 10 μM
Description: (§1) Guinea pigs of either gender (250-300 g) were sacrificed by cervical dislocation after anesthetization with pentobarbital (40 mg kg, i.p.). The procedure related to the use of animals in this invention was approved by the Animal Care and Use Committee for Teaching and Research of University of Hong Kong in accordance with the Guide for the Care and Use of Laboratory Animals (Institute of Laboratory Animal Resources, Commission on Life Sciences, National Research Council, 1996). Left atrial and ventricular myocytes from guinea pig hearts were enzymatically dissociated by the procedure described previously (Li et al., 2002a) and the isolated myocytes were kept in the K^+ storage medium.
(§2) The whole-cell patch-clamp technique was used for electrophysiological recording. Borosilicate glass electrodes (1.2-mm OD) were pulled with a Brown-Flamming puller (model P-97, Sutter Instrument Co, Novato, Calif., USA) and had tip resistances of 2-3 MΩ when filled with pipette solution. Membrane currents were recorded in voltage-clamp mode using an EPC-9 amplifier and Pulse software (HEKA, Lambrecht, Germany). A 3-M KCl-agar salt bridge was used as reference electrode. The tip potentials were compensated before the pipette touched the cell. After a giga-ohm seal was obtained, the cell membrane was ruptured by gentle suction to establish the whole-cell configuration. The cell membrane capacitance (pF) was directly measured using the lock-in module of the Pulse software, and used for normalizing the current in individual cells. The series resistance (Rs) was 3-5 MΩ and was compensated by 50-70% to minimize voltage errors. Perforated patch configuration was used for recording action potential in human atrial cells and IKs in HEK 293 cells as described previously (Li et al., 2002b; Dong et al., 2006). Current signals were low-pass filtered at 5 kHz and stored on the hard disk of an IBM compatible computer.

[4] = test system: IK1; test: IK1 in guinea pig ventricular myocytes; type: cell-based; details: 30 and 100 μM
Description: as §1
The whole-cell patch-clamp technique was used for electrophysiological recording. Borosilicate glass electrodes (1.2-mm OD) were pulled with a Brown-Flamming puller (model P-97, Sutter Instrument Co, Novato, Calif., USA) and had tip resistances of 2-3 MΩ when filled with pipette solution. Membrane currents were recorded in voltage-clamp mode using an EPC-9 amplifier and Pulse software (HEKA, Lambrecht, Germany). A 3-M KCl-agar salt bridge was used as reference electrode. The tip potentials were compensated before the pipette touched the cell. […] The cell membrane capacitance (pF) was directly measured using the lock-in module of the Pulse software, and used for normalizing the current in individual cells. […]

[5] = molecular target: IKs channels (hKCNQ1/hKCNE1) (Homo sapiens, UniProt P51787); test: IKs in HEK 293 cells stably expressing hKCNQ1/hKCNE1; type: cell-based; details: for inhibition of IKs amplitude, in words: 30 μM
Description: (§3) The established HEK 293 cell lines stably expressing the hERG channel gene, Kv1.5 (Tang et al., 2007), or recombinant human cardiac KCNQ1/KCNE1 channel current (IKs) (Dong et al., 2006) was maintained separately in Dulbecco's modified eagle medium (Invitrogen) supplemented with 10% fetal bovine serum and containing 400 μg/ml G418 (for hERG or Kv1.5 channels) or 100 μg/ml hygromycin (for IKs).
as §2

[6] = molecular target: T3, Kv1.5 (Homo sapiens, UniProt P22460); test: Kv1.5 channel block in stably expressing HEK 293 cells; type: cell-based; details: HEK 293 cells stably expressing Kv1.5, Table 3; read-out: Kv1.5 (IC50)
T3 construct: expressed in transfected cells
Description: as §3, §2
Other derivatives/analogs studied have no effect or a week inhibitory effect on Kv1.5.

[7] = test system: anesthetized dogs; test: In vivo electrophysiology (atrial ERP, QTc) in anesthetized dogs; set-up: species or system dog; details: 5 mg/kg intraduodenal, BCL 200 ms, pre-treatment (baseline)
Description: Adult mongrel dogs (12-15 kg) were anesthetized with pentobarbital (30 mg/kg i.v.), supplemented during the experiment when needed. The animal was intubated and ventilated with room air. Body temperature was maintained at 37-38° C. with a temperature control system. The left femoral vein was cannulated for maintenance of anesthesia and introducing the mono-phasic action potential (MAP) recording- and pacing-catheters (Boston Scientific Ltd) to the right atrium. The vagus nerves were isolated and divided in the neck. […] A left thoracotomy was performed in the fourth intercostal space, and the pericardium was incised to provide access to the left atrium for introducing the MAP catheter. The catheters were used for recording MAPs of right and left atria, respectively, and for measurement of effective refractory period (ERP). […] A ligation was made at the pylorus with a thick cotton thread to prevent the possible back flow of the duodenum content.
Following a 30-min equilibration period and measurement of atrial excitation threshold with 2-ms duration of stimuli, atrial ERP was determined using a train of 8 basic stimuli (S1, twice-diastolic threshold) followed by an identical premature stimulus (S2). The basic cycle lengths (BCL) of 200, 250 and 300 ms were applied in both right and left atria. S2 was initially delivered late in diastole in 5-ms decrements until a response was not elicited by the S2 indicated on the MAP recording. The ERP was defined as the longest S1-S2 interval failing a propagated response, and the procedure was repeated for three times for each measurement. MAP, ECG and blood pressure signals were continuously monitored and stored on an IBM compatible PC computer using a multiple channels data acquisition system (RM-6280C, Chengdu Instrument Ltd, Chendu, China).
The ERP measurement was then repeated every hour post drug administration for 6 hours. Excitation threshold of both right and left atria was verified before ERP each measurement. • 1.7.2.
The ERPs were determined in anesthetized dogs using the BCLs of 300, 250, and 200 ms by introducing S1-S2 via a programmed cardiac stimulator (FIG. 10A).

[8] = test system: anesthetized dogs; test: Experimental vagotonic AF in anesthetized dogs; type: in vivo, dog; details: for summarized anti-AF efficacy: vehicle 0%; for animals in which sustained AF was not observed: vehicle: sustained AF in 100%; for prevention of AF induction, in words: 5 and 10 mg/kg intraduodenal, P<0.05 vs vehicle
Description: Sustained vagotonic AF was generated in anesthetized dogs by introducing two MAP catheters respectively into the right atrium and the left ventricle along with stimulation of the divided bilateral vagal nerves in the neck. […] Ventricular pacing was performed with 2 ms voltage pulses (2.5 Hz, 150% diastolic threshold) when vagal nerves were continuously stimulated. AF was generated by the BCL 100-ms S1 followed by S2, lasting for 10 min. […] The sustained AF could be repeatedly generated and terminated by stopping vagal stimulation. AF incidence and AF duration were recorded before and at different time points (0.5, 1, 1.5, 2, 3, and 4h) after intraduodenal administration of drugs.
AF was induced by S1-S2 stimulation at 100 ms BCL with bilateral vagal stimulation (see Methods & FIG. 12) at certain time points during the 0.5 to 4 h period following intraduodenal administration. AF lasted for 10 min and terminated once vagal stimulation was stopped. No AF occurrence or shortened AF duration during the continuous vagal stimulation were considered to represent prevention of AF.

[9] = Water solubility (statement); type: physicochemical; details: for injection application
[10] = molecular target: hERG channels (Homo sapiens, UniProt Q12809); test: cell-based
[11] = extract fraction / isolated compound, concentration not given

T1 sequence (P22460 whole entry): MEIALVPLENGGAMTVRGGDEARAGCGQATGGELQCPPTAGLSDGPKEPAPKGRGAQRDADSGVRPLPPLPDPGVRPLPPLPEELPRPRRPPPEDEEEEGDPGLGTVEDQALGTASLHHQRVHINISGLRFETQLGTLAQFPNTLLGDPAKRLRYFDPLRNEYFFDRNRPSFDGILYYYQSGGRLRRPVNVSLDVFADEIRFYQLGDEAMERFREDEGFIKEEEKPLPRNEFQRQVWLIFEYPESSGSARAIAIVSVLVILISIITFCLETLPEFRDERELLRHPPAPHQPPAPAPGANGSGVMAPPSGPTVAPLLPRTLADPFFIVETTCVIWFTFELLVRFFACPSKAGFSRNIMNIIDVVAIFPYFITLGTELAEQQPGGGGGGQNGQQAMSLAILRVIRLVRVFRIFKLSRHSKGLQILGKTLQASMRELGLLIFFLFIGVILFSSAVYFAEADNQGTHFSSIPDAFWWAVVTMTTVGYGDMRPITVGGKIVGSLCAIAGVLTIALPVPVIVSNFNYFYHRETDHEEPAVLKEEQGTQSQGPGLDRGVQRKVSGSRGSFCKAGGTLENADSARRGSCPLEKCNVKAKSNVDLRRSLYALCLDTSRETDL
T3 sequence (P22460 whole entry): as above
Sequence of hERG channels (Q12809 whole entry): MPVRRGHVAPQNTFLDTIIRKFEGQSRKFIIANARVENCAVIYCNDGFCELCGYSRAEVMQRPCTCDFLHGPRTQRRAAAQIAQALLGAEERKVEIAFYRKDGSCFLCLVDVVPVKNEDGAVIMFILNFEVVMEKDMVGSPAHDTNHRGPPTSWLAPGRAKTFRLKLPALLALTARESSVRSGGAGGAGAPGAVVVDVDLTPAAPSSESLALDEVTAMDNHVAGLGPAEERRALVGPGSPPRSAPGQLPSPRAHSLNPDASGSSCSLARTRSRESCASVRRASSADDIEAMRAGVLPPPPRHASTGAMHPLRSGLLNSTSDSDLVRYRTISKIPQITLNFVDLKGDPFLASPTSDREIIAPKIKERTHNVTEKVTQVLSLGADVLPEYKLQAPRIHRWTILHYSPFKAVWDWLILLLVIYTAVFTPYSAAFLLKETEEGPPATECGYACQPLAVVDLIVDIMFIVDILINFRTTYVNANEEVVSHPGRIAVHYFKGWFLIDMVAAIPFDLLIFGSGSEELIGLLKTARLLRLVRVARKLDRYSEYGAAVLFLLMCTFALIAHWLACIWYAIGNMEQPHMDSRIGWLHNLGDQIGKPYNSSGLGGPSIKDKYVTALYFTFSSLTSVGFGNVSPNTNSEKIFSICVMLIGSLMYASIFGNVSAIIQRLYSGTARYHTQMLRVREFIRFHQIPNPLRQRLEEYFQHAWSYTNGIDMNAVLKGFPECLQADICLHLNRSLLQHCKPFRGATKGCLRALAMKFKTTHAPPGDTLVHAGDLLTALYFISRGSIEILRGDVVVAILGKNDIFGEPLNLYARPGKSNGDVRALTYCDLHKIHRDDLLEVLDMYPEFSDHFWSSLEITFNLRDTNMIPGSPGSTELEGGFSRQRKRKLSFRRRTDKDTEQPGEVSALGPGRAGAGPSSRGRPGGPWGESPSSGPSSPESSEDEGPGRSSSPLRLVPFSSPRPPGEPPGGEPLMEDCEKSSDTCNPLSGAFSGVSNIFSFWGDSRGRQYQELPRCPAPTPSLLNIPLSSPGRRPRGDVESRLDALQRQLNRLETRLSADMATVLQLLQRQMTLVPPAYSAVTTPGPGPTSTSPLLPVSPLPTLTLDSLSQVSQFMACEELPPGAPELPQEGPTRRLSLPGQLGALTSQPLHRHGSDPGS

## COc1ccc(-c2cc(=O)c3c(O)cc(O)cc3o2)cc1 [Acacetin, 5,7-dihydroxy-4′-methoxyflavone]
[1]
  inhibition of voltage-dependent IKur (tail and step currents), in words: substantially inhibited
[1]; listed as acacetin
  inhibition of voltage-dependent IKur (tail and step currents), in words: suppressed
[1]; [11]
  effect on IKur in human atrial myocytes, in words: blocking effect
[1]; human atrial myocytes, +40 mV, 0.3 to 100 μM, Hill equation fit, read-out: IC50 for inhibiting IKur
  IC50: 3.2 µM
[2]
  voltage-dependence of steady-state inactivation and activation of Ito, in words: did not affect
[2]; listed as acacetin
  voltage-dependence of steady-state inactivation and activation of Ito, in words: not affected; also recorded: without affecting
[2]; 3 and 10 μM, with 10 μM verapamil
  inhibition of voltage-dependent Ito, in words: substantially inhibited; also recorded: reduced
[2]; [11]
  effect on Ito in human atrial myocytes, in words: blocking effect
[2]; human atrial myocytes, +40 mV, IKur blocked with 10 μM verapamil, read-out: IC50 for inhibiting Ito
  IC50: 9.2 µM
[3]; 3 μM, n=5
  IK.ACh at +50 mV: 87.8±36.1 pA
  IK.ACh at −100 mV: −180.2±36.7 pA
[3]; 10 μM, n=6
  IK.ACh at +50 mV: 55.7±26.2 pA
  IK.ACh at −100 mV: −75.6±21.1 pA
[3]
  block of carbachol-evoked IK.ACh, in words: substantially blocked
[3]; listed as acacetin
  block of carbachol-evoked IK.ACh, in words: substantially inhibits
[4]
  effect on IK1, in words: no effect; also recorded: no inhibition
[4]; listed as acacetin
  effect on IK1, in words: no effects
[5]
  inhibition of IKs amplitude, in words: significantly inhibited
[5]; listed as acacetin
  inhibition of IKs amplitude, in words: inhibited
[5]; HEK 293 cells, IKs.step, +40 mV, read-out: IC50 for inhibiting IKs
  IC50: 81.4 µM
[6]
  IC50: 3.4 µM
[7]
  right atrial ERP (ms), BCL 200 ms: 87.2 ± 7.9 ms
[8]; 2.5 mg/kg intraduodenal
  summarized anti-AF efficacy: 50%
  animals in which sustained AF was not observed: 50%
[8]; 5 mg/kg intraduodenal
  summarized anti-AF efficacy: 85.7%
  animals in which sustained AF was not observed: 57%
[8]; 10 mg/kg intraduodenal
  summarized anti-AF efficacy: 85.7%
  animals in which sustained AF was not observed: 57%
[8]
  prevention of AF induction, in words: significantly prevented AF
[8]; listed as acacetin
  prevention of AF induction, in words: significantly prevented AF induction
[8]; acacetin 2.5, 5, 10 mg/kg, sotalol 5 mg/kg, 1.5-2.5 h after intraduodenal administration
  incidence of AF, in words: reduced the incidence of AF
[9]
  water solubility, in words: not water soluble
[10]
  IC50: 32.4 µM
